Laboratory results as given in ChEMBL document CHEMBL1127650, “Investigation of the active site of aminopeptidase A using a series of new thiol-containing inhibitors” (J Med Chem, 1994).
pKi: −log10 of the molar value.

Legend:
[1] = test system: Glutamyl aminopeptidase (Oryctolagus cuniculus); assay: Inhibition of aminopeptidase A (APA) at 0.4 mM
Aminopeptidase B = Aminopeptidase B (Homo sapiens, UniProt Q9H4A4); assay: Inhibition of arginylaminopeptidase (aminopeptidase B); parameters: species or system Oryctolagus cuniculus
Chain of Aminopeptidase B (Q9H4A4 whole entry): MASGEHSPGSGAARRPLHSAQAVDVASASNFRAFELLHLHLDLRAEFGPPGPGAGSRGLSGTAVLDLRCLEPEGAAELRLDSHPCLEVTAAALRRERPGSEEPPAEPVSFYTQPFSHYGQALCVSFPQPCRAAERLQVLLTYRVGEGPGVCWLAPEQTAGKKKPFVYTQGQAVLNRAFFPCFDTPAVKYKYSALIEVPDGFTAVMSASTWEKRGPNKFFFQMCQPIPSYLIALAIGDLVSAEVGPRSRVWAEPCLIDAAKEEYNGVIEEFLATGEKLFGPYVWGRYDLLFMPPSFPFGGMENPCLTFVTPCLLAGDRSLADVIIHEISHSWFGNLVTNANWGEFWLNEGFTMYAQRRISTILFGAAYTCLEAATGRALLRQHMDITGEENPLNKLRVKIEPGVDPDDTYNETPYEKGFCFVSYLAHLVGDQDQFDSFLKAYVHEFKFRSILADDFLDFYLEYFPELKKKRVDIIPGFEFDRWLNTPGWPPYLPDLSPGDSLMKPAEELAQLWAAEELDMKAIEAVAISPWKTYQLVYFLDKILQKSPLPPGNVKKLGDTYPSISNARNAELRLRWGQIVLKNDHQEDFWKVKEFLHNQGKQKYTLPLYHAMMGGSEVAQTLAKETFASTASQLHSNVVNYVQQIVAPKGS

inhibition [1] [%]	pKi (Aminopeptidase B)	SMILES
0	–	NC(CC(=O)O)Cc1ccccc1 (centres undefined)
–	9.05	NCCCCC(S)C(=O)O (centres undefined)
0	–	NC(CC(=O)NO)Cc1ccccc1 (centres undefined)

SMILES	inhibition [1] [%]	pKi (Aminopeptidase B)
NC(Cc1ccccc1)CP(=O)(O)O (centres undefined)	13	–
